Experiments:
[1] = xn = mol fraction of the nth substance listed; conditions: 101 kPa, Liquid; for mass density: Vibrating tube method; for speed of sound: Pulse-echo method
[2] = molar heat capacity at constant pressure; xn = mol fraction of the nth substance listed; conditions: 101 kPa, Liquid, Small sample (50 mg) DSC

CCCCCCCCC [nonane] + COC(=O)OC
Conditions	mass density [kg/m3]	molar heat capacity at constant pressure [J/K/mol]	speed of sound [m/s]
[1], 288.15 K, x2 = 0.05335	729.39	–	–
[1], 288.15 K, x2 = 0.1009	736.94	–	–
[1], 288.15 K, x2 = 0.1998	754.47	–	–
[1], 288.15 K, x2 = 0.2963	774.22	–	–
[1], 288.15 K, x2 = 0.3965	798.13	–	–
[1], 288.15 K, x2 = 0.4978	826.3	–	–
[1], 288.15 K, x2 = 0.5983	859.19	–	–
[1], 288.15 K, x2 = 0.6976	897.72	–	–
[1], 288.15 K, x2 = 0.7982	944.58	–	–
[1], 288.15 K, x2 = 0.8985	1002.3	–	–
[1], 293.15 K, x2 = 0.05335	725.45	–	–
[1], 293.15 K, x2 = 0.1009	732.86	–	–
[1], 293.15 K, x2 = 0.1998	750.26	–	–
[1], 293.15 K, x2 = 0.2963	769.82	–	–
[1], 293.15 K, x2 = 0.3965	793.41	–	–
[1], 293.15 K, x2 = 0.4978	821.39	–	–
[1], 293.15 K, x2 = 0.5983	853.92	–	–
[1], 293.15 K, x2 = 0.6976	892.23	–	–
[1], 293.15 K, x2 = 0.7982	938.72	–	–
[1], 293.15 K, x2 = 0.8985	996.2	–	–
[1], 298.15 K, x2 = 0.05335	721.48	–	1198.5
[1], 298.15 K, x2 = 0.1009	728.79	–	1191.8
[1], 298.15 K, x2 = 0.1998	746.03	–	1180
[1], 298.15 K, x2 = 0.2963	765.4	–	1170.5
[1], 298.15 K, x2 = 0.3965	788.73	–	1162.4
[1], 298.15 K, x2 = 0.4978	816.45	–	1156.8
[1], 298.15 K, x2 = 0.5983	848.67	–	1153.4
[1], 298.15 K, x2 = 0.6976	886.73	–	1153.5
[1], 298.15 K, x2 = 0.7982	932.9	–	1158.2
[1], 298.15 K, x2 = 0.8985	990.1	–	1171.2
[1], 308.15 K, x2 = 0.05335	713.45	–	–
[1], 308.15 K, x2 = 0.1009	720.68	–	–
[1], 308.15 K, x2 = 0.1998	737.48	–	–
[1], 308.15 K, x2 = 0.2963	756.46	–	–
[1], 308.15 K, x2 = 0.3965	779.36	–	–
[1], 308.15 K, x2 = 0.4978	806.49	–	–
[1], 308.15 K, x2 = 0.5983	838.24	–	–
[1], 308.15 K, x2 = 0.6976	875.62	–	–
[1], 308.15 K, x2 = 0.7982	921.26	–	–
[1], 308.15 K, x2 = 0.8985	977.7	–	–
[2], 288.15 K, x2 = 0.05262	–	273.59	–
[2], 288.15 K, x2 = 0.1012	–	267.97	–
[2], 288.15 K, x2 = 0.1514	–	262.27	–
[2], 288.15 K, x2 = 0.2001	–	256.97	–
[2], 288.15 K, x2 = 0.297	–	247.1	–
[2], 288.15 K, x2 = 0.4018	–	237.24	–
[2], 288.15 K, x2 = 0.452	–	232.75	–
[2], 288.15 K, x2 = 0.5014	–	228.4	–
[2], 288.15 K, x2 = 0.5514	–	223.85	–
[2], 288.15 K, x2 = 0.6024	–	218.72	–
[2], 288.15 K, x2 = 0.6477	–	213.45	–
[2], 288.15 K, x2 = 0.6978	–	206.69	–
[2], 288.15 K, x2 = 0.7944	–	191.68	–
[2], 288.15 K, x2 = 0.845	–	183.74	–
[2], 288.15 K, x2 = 0.9016	–	175.65	–
[2], 288.15 K, x2 = 0.9486	–	169.8	–
[2], 298.15 K, x2 = 0.05262	–	277.51	–
[2], 298.15 K, x2 = 0.1012	–	271.68	–
[2], 298.15 K, x2 = 0.1514	–	265.73	–
[2], 298.15 K, x2 = 0.2001	–	260.11	–
[2], 298.15 K, x2 = 0.297	–	249.53	–
[2], 298.15 K, x2 = 0.4018	–	238.51	–
[2], 298.15 K, x2 = 0.452	–	233.42	–
[2], 298.15 K, x2 = 0.5014	–	228.22	–
[2], 298.15 K, x2 = 0.5514	–	222.78	–
[2], 298.15 K, x2 = 0.6024	–	217.1	–
[2], 298.15 K, x2 = 0.6477	–	211.64	–
[2], 298.15 K, x2 = 0.6978	–	205.13	–
[2], 298.15 K, x2 = 0.7944	–	191.78	–
[2], 298.15 K, x2 = 0.845	–	184.48	–
[2], 298.15 K, x2 = 0.9016	–	176.75	–
[2], 298.15 K, x2 = 0.9486	–	170.87	–
[2], 308.15 K, x2 = 0.05262	–	281.91	–
[2], 308.15 K, x2 = 0.1012	–	275.81	–
[2], 308.15 K, x2 = 0.1514	–	269.66	–
[2], 308.15 K, x2 = 0.2001	–	263.87	–
[2], 308.15 K, x2 = 0.297	–	252.77	–
[2], 308.15 K, x2 = 0.4018	–	241.06	–
[2], 308.15 K, x2 = 0.452	–	235.55	–
[2], 308.15 K, x2 = 0.5014	–	230.02	–
[2], 308.15 K, x2 = 0.5514	–	224.27	–
[2], 308.15 K, x2 = 0.6024	–	218.19	–
[2], 308.15 K, x2 = 0.6477	–	212.66	–
[2], 308.15 K, x2 = 0.6978	–	206.01	–
[2], 308.15 K, x2 = 0.7944	–	192.97	–
[2], 308.15 K, x2 = 0.845	–	185.93	–
[2], 308.15 K, x2 = 0.9016	–	178.33	–
[2], 308.15 K, x2 = 0.9486	–	172.4	–

Source: the NIST ThermoML archive (doi:10.1016/j.tca.2004.11.022)
